Measured values taken from patent publication US20140275156A1, “FLAVONOID COMPOUNDS, AND METHODS OF USE THEREOF” (NEUPROTECT PTY LTD, priority 2011, published 2014).

How the values were obtained:
[1] = system: primary neonatal rat cardiac myocytes; test: Cytoprotection in primary cardiac myocytes; type: cell-based
Method: (§1) Cardiac myocytes were plated on collagen-coated dishes in serum containing media Dulbecco's modified Eagle's medium/Medium 199 (4:1 v/v) containing 10% (v/v) horse serum, 5% (v/v) fetal calf serum, and penicillin/streptomycin (100 units/ml). Murine skeletal myoblast (C2C12) or rat cardiac myoblasts (H9C2) were maintained in DMEM supplemented with 10% (v/v) fetal calf serum and 100 U/ml penicillin-streptomycin. Cells were incubated overnight at 37° C. in a 5% CO2 incubator prior to the experiment. Cells were pre-treated with flavanols for 30 min prior to stress treatments. Following pre-treatment, cells were stimulated by the addition of H2O2 (1 mM), sorbitol (0.5 M) or arsenite (300 μM). DMSO (0.1% v/v) was used as a vehicle control. Following treatment, cells were assessed for viability or protein lysates prepared for immunoblot analysis.
(§2) To define the protective and kinase modulatory properties of the compounds of the certain embodiments, their effects in greater detail in vitro. The protection of cultured C2C12 murine myoblasts was evaluated against detrimental stress stimuli using an XTT assay of cell viability. In a time-course of oxidative damage, it was observed that 2 h treatment of H2O2 (0.5 or 1.0 mM) reduced myoblast viability to 38.5+2.0% and 31.9+0.8%, respectively, compared with control cells without H2O2 treatment.

H9C2 rat myoblasts = test: Cytoprotection in H9C2 myoblasts; type: cell-based
Method: as §1, §2

[2] = in vitro studies (Wang et al., British Journal of Pharmacology (2004) 142, 443-452); cited from earlier work

O=c1c(O)c(-c2ccc(O)c(O)c2)oc2ccccc12 [DiOHF, 3′,4′-dihydroxy flavonol]
protection against stress [1]: similarly protective
protection against stress (H9C2 rat myoblasts): similarly protective
infarct and injury associated with myocardial ischaemia and reperfusion [2]: reduce infarct and injury
